{
  "source": "patent US12492373B2",
  "about": "“Production method for nerve tissue” (Racthera Co., Ltd., priority 2014, dated 2025)",
  "key": {"[1]": {"test_system": "human iPS cells (Ff-I01 strain)", "assay": "Neural tissue / neuroepithelium formation in cell aggregates, bright field observation", "format": "cell-based", "conditions": "StemFit AK03N; SAG 300 nM for 24, 48, 72 or 96 hr in step 1, SAG 500 nM in step 2, BMP4 1.5 nM; day 19", "description": "At the time of the start of suspension culturing (day 0 after the start of suspension culturing, […]), Y27632 ([…]) were added to the above serum-free medium (FIG. 22). By day 2 after the start of suspension culturing, a cell aggregate was formed (step 2 completed, step 3 start) under any conditions. On day 3 or later from the start of suspension culturing, BMP4 was added under 3 conditions including the following conditions 1-3. • Condition 1: (+BMP4 addition once) On day 3 of suspension culturing, a medium (50 μl) free of Y27632 and SAG, and containing human recombinant BMP4 (manufactured by R&D) was added such that the final concentration of exogenous human recombinant BMP4 was 1.5 nM (55 ng/ml). On day 6 or later from the start of suspension culturing, a half amount of the medium was changed to a serum-free medium free of Y27632, SAG and human recombinant BMP4. • Condition 2: (+BMP4 addition twice) On day 3 of suspension culturing, a medium (50 μl) free of Y27632, SAG and containing human recombinant BMP4 (manufactured by R&D) was added such that the final concentration of exogenous human recombinant BMP4 was 1.5 nM (55 ng/ml). On day 6 from the start of suspension culturing, 50 μl of the medium was discarded, and 50 μl of a medium free of Y27632 and SAG and containing human recombinant BMP4 (manufactured by R&D) was added to maintain the final concentration of exogenous human recombinant BMP4 at 1.5 nM (55 ng/ml). On day 9 or later from the start of suspension culturing, a half amount of the medium was changed with a serum-free medium free of Y27632, SAG, and human recombinant BMP4. • Condition 3: (+BMP4 addition three times) On day 3 of suspension culturing, a medium (50 μl) free of Y27632, SAG and containing human recombinant BMP4 (manufactured by R&D) was added such that the final concentration of exogenous human recombinant BMP4 was 1.5 nM (55 ng/ml). On days 6 and 9 from the start of suspension culturing, 50 μl of the medium was discarded, and 50 μl of a medium free of Y27632 and SAG and containing human recombinant BMP4 (manufactured by R&D) was added to maintain the final concentration of exogenous human recombinant BMP4 at 1.5 nM (55 ng/ml). On day 12 or later from the start of suspension culturing, a half amount of the medium was changed with a serum-free medium free of Y27632, SAG and human recombinant BMP4. […]\nOn day 3 after the start of suspension culturing, a medium (50 μl) free of Y27632 and SAG, and containing human recombinant BMP4 (manufactured by R&D) was added such that the final concentration of exogenous human recombinant BMP4 was 1.5 nM (55 ng/ml) or 5 nM (183 ng/ml). […]"}, "[2]": {"test_system": "human iPS cells (Ff-I01 strain)", "assay": "Immunostaining of aggregate sections for retinal tissue marker Chx10", "format": "cell-based", "conditions": "StemFit AK03N, day 19", "excerpt": "(§1) Cell aggregates on day 16 after the start of suspension culturing were fixed with 4% para-formaldehyde to prepare frozen sections. These frozen sections were immunostained for Chx10 (anti-Chx10 antibody, Exalpha, sheep), which is one of the retinal tissue markers. These immunostained sections were observed under a fluorescence microscope.\nCell aggregates on day 16 after the start of suspension culturing were fixed with 4% para-formaldehyde to prepare frozen sections. These frozen sections were immunostained for Chx10 (anti-Chx10 antibody, Exalpha, sheep), which is one of the retinal tissue markers, and observed under a fluorescence microscope. […] In addition, the proportion of Chx10-positive cells in the total cells is about 80% under conditions with the addition of BMP4 twice to maintain the final concentration of 5 nM (FIG. 23, D)\nThe cell aggregates on day 19 after the start of suspension culturing were fixed with 4% para-formaldehyde to prepare frozen sections. These frozen sections were immunostained for Chx10 (anti-Chx10 antibody, Exalpha, sheep), which is one of the retinal tissue markers. These immunostained sections were observed under an inverted fluorescence microscope. As a result, the proportion of Chx10-positive cells in the total cells is about 70% under conditions with the addition of BMP4 twice to maintain the final concentration of 1.5 nM ([…]). In addition, the proportion of Chx10-positive cells in the total cells is about 90% under conditions with the addition of BMP4 twice to maintain the final concentration of 5 nM (FIG. 34, D).\nas §1, with “The thus-prepared cell” for “Cell”, “19” for “16”, “markers, and” for “markers. These immunostained sections were”"}},
  "data": [
    {"smiles": "CNC1CCC(N(Cc2cccc(-c3ccncc3)c2)C(=O)c2sc3ccccc3c2Cl)CC1", "note": "(stereo not drawn) [SAG]", "values": [
      {"measurement": "cell aggregate growth and neuroepithelium formation", "setting": "[1]", "result": "neuroepithelium can be formed efficiently"},
      {"measurement": "proportion of Chx10-positive cells in the total cells", "setting": "[2]; SAG 300 nM for 48, 72 or 96 hr in step 1, SAG 500 nM in step 2, BMP4 1.5 nM", "result": "about 80%"},
      {"measurement": "proportion of Chx10-positive cells in the total cells", "setting": "[2]; SAG 300 nM for 24 hr in step 1, SAG 500 nM in step 2, BMP4 1.5 nM", "result": "about 10%"}
    ]}
  ]
}
